# Experimental data: PubChem BioAssay (NCI)
#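 These data come from cells grown in 96-well plates and exposed to compound for 48 hours at five concentrations. GI50 marks 50% less growth. TGI marks complete inhibition of growth.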
# Tests used:
# Assay in all cases: NCI anticancer screen, dose series, 48 h
# HCT-15 colon = tested on: HCT-15 colon
# NCI/ADR-RES ovarian = tested on: NCI/ADR-RES ovarian
# A498 renal = tested on: A498 renal
# UO-31 renal = tested on: UO-31 renal
# OVCAR-4 ovarian = tested on: OVCAR-4 ovarian
# PC-3 prostate = tested on: PC-3 prostate
# ACHN renal = tested on: ACHN renal
# SF-539 CNS = tested on: SF-539 CNS
# SW-620 colon = tested on: SW-620 colon
# COLO 205 colon = tested on: COLO 205 colon
# KM12 colon = tested on: KM12 colon
# HT29 colon = tested on: HT29 colon
# CAKI-1 renal = tested on: CAKI-1 renal
# SNB-75 CNS = tested on: SNB-75 CNS
# OVCAR-5 ovarian = tested on: OVCAR-5 ovarian
# SK-OV-3 ovarian = tested on: SK-OV-3 ovarian
# SK-MEL-28 melanoma = tested on: SK-MEL-28 melanoma
# UACC-62 melanoma = tested on: UACC-62 melanoma
# SK-MEL-5 melanoma = tested on: SK-MEL-5 melanoma
# NCI-H460 lung = tested on: NCI-H460 lung
# SF-295 CNS = tested on: SF-295 CNS
# NCI-H226 lung = tested on: NCI-H226 lung
# HCT-116 colon = tested on: HCT-116 colon
# MDA-MB-231 breast = tested on: MDA-MB-231 breast
# 786-0 renal = tested on: 786-0 renal
# SN12C renal = tested on: SN12C renal
# HCC-2998 colon = tested on: HCC-2998 colon
# TK-10 renal = tested on: TK-10 renal
# DU-145 prostate = tested on: DU-145 prostate
# M14 melanoma = tested on: M14 melanoma
# HL-60(TB) leukemia = tested on: HL-60(TB) leukemia
# SNB-19 CNS = tested on: SNB-19 CNS
# SK-MEL-2 melanoma = tested on: SK-MEL-2 melanoma
# MDA-MB-435 = tested on: MDA-MB-435
# IGROV1 ovarian = tested on: IGROV1 ovarian
# A549 NSCLC = tested on: A549 NSCLC
# LOX IMVI melanoma = tested on: LOX IMVI melanoma
# HS 578T breast = tested on: HS 578T breast
# U251 CNS = tested on: U251 CNS
# BT-549 breast = tested on: BT-549 breast
# MOLT-4 leukemia = tested on: MOLT-4 leukemia
# K-562 leukemia = tested on: K-562 leukemia
# CCRF-CEM leukemia = tested on: CCRF-CEM leukemia
# MCF7 breast = tested on: MCF7 breast
# OVCAR-3 ovarian = tested on: OVCAR-3 ovarian
# RXF 393 renal = tested on: RXF 393 renal
# HOP-62 NSCLC = tested on: HOP-62 NSCLC
# SF-268 CNS = tested on: SF-268 CNS
# T-47D breast = tested on: T-47D breast
# HOP-92 NSCLC = tested on: HOP-92 NSCLC
# OVCAR-8 ovarian = tested on: OVCAR-8 ovarian
# NCI-H23 lung = tested on: NCI-H23 lung
# UACC-257 melanoma = tested on: UACC-257 melanoma
# MALME-3M melanoma = tested on: MALME-3M melanoma
# NCI-H522 lung = tested on: NCI-H522 lung
# RPMI-8226 leukemia = tested on: RPMI-8226 leukemia
smiles,measurement,setting,value
Cc1cn2c(/C=N/N=C(N)N)c(-c3ccc([N+](=O)[O-])cc3)nc2s1,TGI,HCT-15 colon,2.77 µM
same,TGI,NCI/ADR-RES ovarian,> 100 µM
same,TGI,A498 renal,3.01 µM
same,TGI,UO-31 renal,3.37 µM
same,TGI,OVCAR-4 ovarian,0.316 µM
same,TGI,PC-3 prostate,2.73 µM
same,TGI,ACHN renal,2.82 µM
same,TGI,SF-539 CNS,3.05 µM
same,TGI,SW-620 colon,0.331 µM
same,TGI,COLO 205 colon,1.97 µM
same,TGI,KM12 colon,1.72 µM
same,TGI,HT29 colon,2.67 µM
same,TGI,CAKI-1 renal,6.57 µM
same,TGI,SNB-75 CNS,1.87 µM
same,TGI,OVCAR-5 ovarian,2.14 µM
same,TGI,SK-OV-3 ovarian,3.14 µM
same,TGI,SK-MEL-28 melanoma,3.05 µM
NC(N)=N/N=C/c1c(-c2ccc(Cl)c([N+](=O)[O-])c2)nc2sccn12,TGI,UACC-62 melanoma,3.27 µM
same,TGI,SK-MEL-5 melanoma,3.26 µM
same,TGI,HCT-15 colon,3.5 µM
same,TGI,NCI/ADR-RES ovarian,> 100 µM
same,TGI,A498 renal,3.14 µM
same,TGI,NCI-H460 lung,3.3 µM
same,TGI,UO-31 renal,3.05 µM
same,TGI,OVCAR-4 ovarian,4.49 µM
same,TGI,PC-3 prostate,3.11 µM
same,TGI,ACHN renal,3.15 µM
same,TGI,SF-295 CNS,3.47 µM
same,TGI,NCI-H226 lung,6.23 µM
same,TGI,HCT-116 colon,2.25 µM
same,TGI,SF-539 CNS,3.27 µM
same,TGI,COLO 205 colon,2.61 µM
same,TGI,MDA-MB-231 breast,3.24 µM
same,TGI,786-0 renal,3.15 µM
same,TGI,HT29 colon,2.8 µM
same,TGI,SN12C renal,3.29 µM
same,TGI,OVCAR-5 ovarian,3.12 µM
same,TGI,HCC-2998 colon,2.94 µM
same,TGI,TK-10 renal,3.16 µM
same,TGI,DU-145 prostate,3.17 µM
same,TGI,SK-MEL-28 melanoma,27.8 µM
COc1ccc(-c2cc(=O)c3c(OC)c4ccoc4c(/C=C/C=O)c3o2)cc1,GI50,UACC-62 melanoma,1.77 µM
same,TGI,UACC-62 melanoma,5.11 µM
same,GI50,M14 melanoma,2.24 µM
same,TGI,M14 melanoma,7.56 µM
same,GI50,HL-60(TB) leukemia,2.72 µM
same,TGI,HL-60(TB) leukemia,8.33 µM
same,GI50,SNB-19 CNS,3.16 µM
same,TGI,SNB-19 CNS,46.6 µM
same,GI50,SK-MEL-2 melanoma,9.06 µM
same,TGI,SK-MEL-2 melanoma,84.6 µM
same,GI50,MDA-MB-435,2.81 µM
same,TGI,MDA-MB-435,32.3 µM
same,GI50,IGROV1 ovarian,13.6 µM
same,TGI,IGROV1 ovarian,> 100 µM
same,GI50,SK-MEL-5 melanoma,1.69 µM
same,TGI,SK-MEL-5 melanoma,3.51 µM
same,GI50,HCT-15 colon,1.73 µM
same,TGI,HCT-15 colon,5.92 µM
same,GI50,A549 NSCLC,18.5 µM
same,TGI,A549 NSCLC,72.4 µM
same,GI50,NCI/ADR-RES ovarian,2.84 µM
same,TGI,NCI/ADR-RES ovarian,48 µM
same,GI50,A498 renal,17.2 µM
same,TGI,A498 renal,71.9 µM
same,GI50,LOX IMVI melanoma,1.08 µM
same,TGI,LOX IMVI melanoma,2.34 µM
same,GI50,NCI-H460 lung,4.7 µM
same,TGI,NCI-H460 lung,39.4 µM
same,GI50,HS 578T breast,10.4 µM
same,TGI,HS 578T breast,> 100 µM
same,GI50,U251 CNS,2.53 µM
same,TGI,U251 CNS,10.3 µM
same,GI50,UO-31 renal,3.17 µM
same,TGI,UO-31 renal,19.5 µM
same,GI50,OVCAR-4 ovarian,3.8 µM
same,TGI,OVCAR-4 ovarian,> 100 µM
same,GI50,PC-3 prostate,2.58 µM
same,TGI,PC-3 prostate,16.5 µM
same,GI50,BT-549 breast,2.14 µM
same,TGI,BT-549 breast,7.15 µM
same,GI50,ACHN renal,19.3 µM
same,TGI,ACHN renal,> 100 µM
same,GI50,MOLT-4 leukemia,1.84 µM
same,TGI,MOLT-4 leukemia,5.97 µM
same,GI50,SF-295 CNS,3.4 µM
same,TGI,SF-295 CNS,26.5 µM
same,GI50,NCI-H226 lung,2.93 µM
same,TGI,NCI-H226 lung,8.89 µM
same,GI50,HCT-116 colon,1.06 µM
same,TGI,HCT-116 colon,3.43 µM
same,GI50,K-562 leukemia,2.8 µM
same,TGI,K-562 leukemia,> 100 µM
same,GI50,CCRF-CEM leukemia,1.09 µM
same,TGI,CCRF-CEM leukemia,> 100 µM
same,GI50,MCF7 breast,1.63 µM
same,TGI,MCF7 breast,> 100 µM
same,GI50,OVCAR-3 ovarian,3.92 µM
same,TGI,OVCAR-3 ovarian,25.3 µM
same,GI50,SF-539 CNS,4.14 µM
same,TGI,SF-539 CNS,19.6 µM
same,GI50,SW-620 colon,2.3 µM
same,TGI,SW-620 colon,10.4 µM
same,GI50,RXF 393 renal,2.15 µM
same,TGI,RXF 393 renal,4.49 µM
same,GI50,HOP-62 NSCLC,2.98 µM
same,TGI,HOP-62 NSCLC,11.1 µM
same,GI50,COLO 205 colon,27.5 µM
same,TGI,COLO 205 colon,80.4 µM
same,GI50,MDA-MB-231 breast,4.22 µM
same,TGI,MDA-MB-231 breast,85.3 µM
same,GI50,KM12 colon,12.3 µM
same,TGI,KM12 colon,25.7 µM
same,GI50,786-0 renal,16.8 µM
same,TGI,786-0 renal,72.5 µM
same,GI50,HT29 colon,18.1 µM
same,TGI,HT29 colon,> 100 µM
same,GI50,SN12C renal,2.32 µM
same,TGI,SN12C renal,59.5 µM
same,GI50,SF-268 CNS,4.38 µM
same,TGI,SF-268 CNS,87.2 µM
same,GI50,T-47D breast,2.03 µM
same,TGI,T-47D breast,> 100 µM
same,GI50,HOP-92 NSCLC,16.8 µM
same,TGI,HOP-92 NSCLC,98.7 µM
same,GI50,OVCAR-8 ovarian,2.83 µM
same,TGI,OVCAR-8 ovarian,27.3 µM
same,GI50,NCI-H23 lung,2.8 µM
same,TGI,NCI-H23 lung,13 µM
same,GI50,CAKI-1 renal,5.03 µM
same,TGI,CAKI-1 renal,> 100 µM
same,GI50,SNB-75 CNS,3.13 µM
same,TGI,SNB-75 CNS,20.6 µM
same,GI50,OVCAR-5 ovarian,11.7 µM
same,TGI,OVCAR-5 ovarian,46.8 µM
same,GI50,UACC-257 melanoma,3.63 µM
same,TGI,UACC-257 melanoma,14.2 µM
same,GI50,HCC-2998 colon,13.7 µM
same,TGI,HCC-2998 colon,27.8 µM
same,GI50,MALME-3M melanoma,3.79 µM
same,TGI,MALME-3M melanoma,8.3 µM
same,GI50,NCI-H522 lung,34.6 µM
same,TGI,NCI-H522 lung,> 100 µM
same,GI50,RPMI-8226 leukemia,1.37 µM
same,TGI,RPMI-8226 leukemia,5.29 µM
same,GI50,DU-145 prostate,4.53 µM
same,TGI,DU-145 prostate,18.9 µM
same,GI50,SK-OV-3 ovarian,4.73 µM
same,TGI,SK-OV-3 ovarian,23 µM
same,GI50,SK-MEL-28 melanoma,2.52 µM
same,TGI,SK-MEL-28 melanoma,7.1 µM
